# Laboratory results from patent US6274348A, “Methods for the preparation of positively charged proteins” (XOMA Corporation, priority 1997, dated 2001).
# Assays:
# [1] = biological target: T1, rBPI(1-191)-IgG fusion protein (human BPI residues 1-191 fused to human IgG1 heavy chain hinge-CH2-CH3) (Homo sapiens, UniProt P01857+P17213); test: direct 3H-heparin binding assay; conditions: highest 3H heparin concentration tested 2.5 μM; protein at 100 pmol/well, one hour at 4° C.
# T1 construct: an rBPI(1-191)-IgG fusion protein was added to the wells of a 96-well plate; made in house; host or cells: CHO-DG44
# T1 sequence (P17213+P01857 fused): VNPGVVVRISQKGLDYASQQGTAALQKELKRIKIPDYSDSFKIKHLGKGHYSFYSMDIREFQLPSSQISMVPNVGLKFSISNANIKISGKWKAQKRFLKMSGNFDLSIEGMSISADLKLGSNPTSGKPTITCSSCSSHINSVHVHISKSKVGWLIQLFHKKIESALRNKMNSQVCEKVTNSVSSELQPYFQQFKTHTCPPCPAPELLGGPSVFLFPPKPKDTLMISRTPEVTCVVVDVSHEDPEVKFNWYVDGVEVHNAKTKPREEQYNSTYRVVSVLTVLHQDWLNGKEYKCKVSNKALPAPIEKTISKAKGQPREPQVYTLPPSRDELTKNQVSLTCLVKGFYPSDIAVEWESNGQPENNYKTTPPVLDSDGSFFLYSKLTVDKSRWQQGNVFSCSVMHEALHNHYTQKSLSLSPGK
# Source text: (§1) A direct ^3 H-heparin binding assay was utilized to analyze the comparative binding of rBPI(1-199) and rBPI-Ig fusions to heparin. The assay was based on the ability of a derivatized nylon membrane to bind proteins with high capacity. Such a membrane has been incorporated into the bottom of 96-well microtiter plates by Millipore Corp. (Bedford Mass.) (MULTISCREEN IP plates) and may be punched out of each well for scintillation counting.
# (§2) To conduct the assay, rBPI(1-199) or an rBPI(1-191)-IgG fusion protein was added to the wells of a 96-well plate at a concentration of 100 pmol/well diluted with phosphate buffered saline (PBS), pH 7.4 nylon membrane. Upon absorption to the membrane, the wells were blocked with a blocking buffer comprising 0.1% bovine serum albumin (BSA) in PBS. Serial dilutions of ^3 H heparin (DuPont, NEN, Wilmington, Del.) were made from 4-5 μg/ml in the blocking buffer and incubated in the wells coated with either rBPI(1-199) and rBPI(1-191)-IgG for one hour at 4° C. After one hour, unbound heparin was aspirated and the wells were washed three times with blocking buffer, dried, and removed for quantitation of bound ^3 H-heparin by liquid scintillation counting.
# [2] = biological target: T2, rBPI(1-199), first 199 N-terminal amino acids of mature human BPI (SEQ ID NOS: 1 and 2) (Homo sapiens, UniProt P17213); test: direct 3H-heparin binding assay; conditions: protein adsorbed to nylon membrane at 100 pmol/well, 3H heparin dilutions, one hour at 4° C., PBS pH 7.4 with 0.1% BSA; read-out: apparent affinity (Kd) for heparin
# T2 construct: made in house
# T2 sequence (P17213 32-230): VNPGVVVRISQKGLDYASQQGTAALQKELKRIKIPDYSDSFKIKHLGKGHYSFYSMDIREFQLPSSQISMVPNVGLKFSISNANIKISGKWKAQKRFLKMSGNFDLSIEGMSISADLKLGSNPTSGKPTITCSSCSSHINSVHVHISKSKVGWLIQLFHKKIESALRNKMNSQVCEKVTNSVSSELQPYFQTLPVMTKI
# Source text: as §1, §2
substance,measurement,setting,value
heparin,saturation of 3H heparin binding,[1],did not reach saturation
same,Kd,[2],114 ± 30 nM
